In patent publication US20230165970A1, “COMPOSITIONS AND METHODS FOR THE TREATMENT OF BACTERIAL INFECTIONS” (priority 2017, published 2023):
Converted amounts (≈) assume the structure as drawn. Read-outs that look alike come from different tables or passages of the source. *1 amine or outer side, *2 acyl side, *3 side chain or, on linkers, in order; H or OH if unused. Where a SMILES comes first, the peptide text is derived from it. Bridges are numbered along the chain shown (N, C = ends). Roman numbers before positions name the chains, in order. [ ]: non-standard residue; d: D form. The star is where a group is joined. X5 = C#CCOCCOCCOCCOCCN1C[C@@H](C(=O)[*:1])[C@H](C(=O)[*:2])C1; X2 = O=C([C@@H](N[*:1])[C@H](O)CCC(F)(F)F)[*:2]; Propargyl(OCH2CH2)4CO = C#CCOCCOCCOCCOCCC(=O)*; X3 = CCCCC[C@@H](O)[C@H](N[*:1])C(=O)[*:2]; azaDab = NCCN(N[*:1])C(=O)[*:2]; Aoc(2) = CCCCCC[C@H](N)C(=O)O; hLeu = CC(C)CC[C@H](N)C(=O)O; Nle = CCCC[C@H](N)C(=O)O; Dab = NCC[C@H](N)C(=O)O; azaGly = NNC(=O)O

Columns and labels:
Ec 2469 = assay type: cell-based, Escherichia coli
Summary of the method: (§1)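 Twofold dilution series of each agent received bacterial cells from MHA plates (saline, ~0.1 OD600 nm), with RPMI B medium used for drug conjugates. Plates were shaken and held at 35° C overnight (16-20 h). LES431 was tested in presence and absence of 50% heat-inactivated fetal bovine serum.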

Ec 25922 = assay type: cell-based, Escherichia coli; details: for MIC in RPMI EC 25922: pH 7.4
Summary of the method: as §1

[1] = test system: Ab AB58705 (COL^R) IpxD, mut. (no LPS); assay type: cell-based, Acinetobacter baumannii; details: media CA-MHB
Ab 8990 (COL^R) = assay type: cell-based, Acinetobacter baumannii
Summary of the method: as §1

Ab AB5075 = assay type: cell-based, Acinetobacter baumannii; details: for MIC in RPMI AB 5075: pH 7.4
Summary of the method: as §1

Pa 27853 = assay type: cell-based, Pseudomonas aeruginosa
Summary of the method: as §1

Pa LES431 = assay type: cell-based, Pseudomonas aeruginosa
Summary of the method: as §1

Pa PAO1 = assay type: cell-based, Pseudomonas aeruginosa; details: for MIC in RPMI PA 01: PAO1, pH 7.4
Summary of the method: as §1

Kp 10031 = assay type: cell-based, Klebsiella pneumoniae
Summary of the method: as §1

Kp 43816 = assay type: cell-based, Klebsiella pneumoniae
Summary of the method: as §1

Kp 6951 (COL^R) = assay type: cell-based, Klebsiella pneumoniae; details: Kp 6951 (COL^R); media CA-MHB
Summary of the method: as §1

Sa RN = assay type: cell-based
LPS from E. coli O111:B4 = experiment: LPS binding/neutralization by Limulus Amebocyte Lysate (LAL) assay; assay type: biochemical; details: LPS 1-10,000 ng/mL, test article 0.25-10 μM; sum of AUCs relative to maximal AUC (Table 15)
Procedure: The LAL assay (Charles River) was used to determine the binding affinity of test articles to LPS.
(§2) For the assay, 25 μL purified LPS from E. coli O111:1B4 (Sigma) at doses ranging from 1-10,000 ng/mL were incubated with 25 μL of test article at concentrations ranging from 0.25-10 NM. After 5 min incubation at 37° C., 50 μL of LAL reagent, which reacts with lipid A portion from LPS, was added to corresponding wells. After 15 min, absorbance at 405 nm was read on EnSpire plate reader (Perkin Elmer). The % LPS neutralization is calculated relative to a PBS control (background) and LPS control at each concentration (positive control).
LPS neutralization=(1−(absorbance test article−PBS with LAL reagent)/(absorbance no test article−PBS with LAL reagent))×100
To obtain a single value of LPS neutralization for each test article, the area under the curve (AUC) for dose-response of test articles from […] for each LPS concentration was calculated using Prism 7 software. The % LPS neutralization is the sum of the AUCs for each LPS concentration determined relative to the maximal AUC achievable×100.
as §2, with “O111:B4” for “O111:1B4”, “μM.” for “NM.”

A. baumannii AB5075 = experiment: Lethal A. baumannii lung infection (mouse pneumonia) model, survival; assay type: in vivo, Acinetobacter baumannii; details: mouse pneumonia model vs. AB5075; 5 mg/kg, twice intravenously, t=+1 h and +4 h; n=5

Structure (SMILES) | MIC (Ec 2469) [µg/mL] | MIC (Ec 25922) [µg/mL] | MIC in RPMI EC 25922 (Ec 25922) [µg/mL] | MIC [1] [µg/mL] | MIC (Ab 8990 (COL^R); Ab 8990 (COL^R), media CA-MHB) [µg/mL] | MIC (Ab AB5075) [µg/mL] | MIC in RPMI AB 5075 (Ab AB5075) [µg/mL] | MIC (Pa 27853) [µg/mL] | MIC (Pa LES431) [µg/mL] | MIC (Pa PAO1; PAO1) [µg/mL] | MIC in RPMI PA 01 (Pa PAO1) [µg/mL] | MIC (Kp 10031) [µg/mL] | MIC (Kp 43816) [µg/mL] | MIC (Kp 6951 (COL^R)) [µg/mL] | MIC (Sa RN) [µg/mL] | % LPS neutralization (LPS from E. coli O111:B4) [%] | protection (survival over 5 days), FIG. 118 (A. baumannii AB5075) [%] | MIC (Ab 8990 (COL^R)) [µg/mL] | also measured
C#CCOCCOCCOCCOCCC(=O)N[C@@H](CCC(C)C)C(=O)N[C@@H](CCN)C(=O)N[C@H](C(=O)NN(CCN)C(=O)N[C@H]1CCNC(=O)[C@H]([C@@H](C)O)NC(=O)[C@H](CCN)NC(=O)[C@H](CCN)NC(=O)[C@H](CC(C)C)NC(=O)[C@@H](Cc2ccccc2)NC(=O)[C@H](CCN)NC1=O)[C@@H](C)O [Int-127] ({Propargyl(OCH2CH2)4CO}-[hLeu][Dab]T[azaDab][Dab][Dab][dF]L[Dab][Dab]T; lactam 5-C) | 1 (≈ 0.697 µM) | 1 (≈ 0.697 µM) | 1.00 (≈ 0.697 µM) | 64 (≈ 44.6 µM) | >128 | 2 (≈ 1.39 µM) | 1.00 (≈ 0.697 µM) | 2 (≈ 1.39 µM) | 1 (≈ 0.697 µM) | 2 (≈ 1.39 µM) | 3.99 (≈ 2.78 µM) | 1 (≈ 0.697 µM) | 1 (≈ 0.697 µM) | >128 | >128 | 13.0 | – | – | –
C#CCOCCOCCOCCOCCC(=O)N[C@@H](CCC(C)C)C(=O)N[C@@H](CCN)C(=O)N[C@H](C(=O)NNC(=O)N[C@H]1CCNC(=O)[C@H]([C@@H](C)O)NC(=O)[C@H](CCN)NC(=O)[C@H](CCN)NC(=O)[C@H](CC(C)C)NC(=O)[C@@H](Cc2ccccc2)NC(=O)[C@H](CCN)NC1=O)[C@H](O)CCCCC [Int-116] ({Propargyl(OCH2CH2)4CO}-[hLeu][Dab][X3][azaGly][Dab][Dab][dF]L[Dab][Dab]T; lactam 5-C) | 2 (≈ 1.38 µM) | 2 (≈ 1.38 µM) | 1.05 (≈ 0.726 µM) | 64 (≈ 44.2 µM) | >128 | 1 (≈ 0.691 µM) | 1.05 (≈ 0.726 µM) | 4 (≈ 2.76 µM) | 4 (≈ 2.76 µM) | 4 (≈ 2.76 µM) | 8.41 (≈ 5.81 µM) | 2 (≈ 1.38 µM) | 2 (≈ 1.38 µM) | >128 | >128 | 33.2 | 100 | – | –
C#CCOCCOCCOCCOCCN1C[C@@H](C(=O)N[C@@H](CCCC)C(=O)N[C@@H](CCN)C(=O)N[C@H](C(=O)NNC(=O)N[C@H]2CCNC(=O)[C@H]([C@@H](C)O)NC(=O)[C@H](CCN)NC(=O)[C@H](CCN)NC(=O)[C@H](CC(C)C)NC(=O)[C@@H](Cc3ccccc3)NC(=O)[C@H](CCN)NC2=O)[C@@H](C)O)[C@H](C(=O)N[C@@H](CCCC)C(=O)N[C@@H](CCN)C(=O)N[C@H](C(=O)NNC(=O)N[C@H]2CCNC(=O)[C@H]([C@@H](C)O)NC(=O)[C@H](CCN)NC(=O)[C@H](CCN)NC(=O)[C@H](CC(C)C)NC(=O)[C@@H](Cc3ccccc3)NC(=O)[C@H](CCN)NC2=O)[C@@H](C)O)C1 [Int-120] (I: [Nle][Dab]T[azaGly][Dab][Dab][dF]L[Dab][Dab]T / II: [Nle][Dab]T[azaGly][Dab][Dab][dF]L[Dab][Dab]T; lactam I:5-I:C, II:5-II:C; linker I:N-II:N via X5) | – | – | – | 4 (≈ 1.53 µM) | >128 | – | – | – | – | – | – | – | – | 8 (≈ 3.07 µM) | >128 | 68.0 | – | – | MIC (Ec 2469; Ec 2469, media CA-MHB): 2 µg/mL (≈ 0.767 µM); MIC (Ec 25922; Ec 25922 + FBS (50%, heat-inactivated), media CA-MHB): 0.25 µg/mL; MIC (Ec 25922; Ec 25922, media CA-MHB): 2 µg/mL (≈ 0.767 µM); MIC (Ab AB5075; Ab AB5075, media CA-MHB): 2 µg/mL (≈ 0.767 µM); MIC (Pa 27853; Pa 27853, media CA-MHB): 4 µg/mL (≈ 1.53 µM); MIC (Pa LES431; Pa LES431 + FBS (50%, heat-inactivated), media CA-MHB): 8 µg/mL; MIC (Pa LES431; Pa LES431, media CA-MHB): 2 µg/mL (≈ 0.767 µM); MIC (Pa PAO1; Pa PAO1, media CA-MHB): 4 µg/mL (≈ 1.53 µM); MIC (Kp 10031; Kp 10031, media CA-MHB): 2 µg/mL (≈ 0.767 µM); MIC (Kp 43816; Kp 43816, media CA-MHB): 2 µg/mL (≈ 0.767 µM)
C#CCOCCOCCOCCOCCC(=O)N[C@@H](CCCCCC)C(=O)N[C@@H](CCN)C(=O)N[C@H](C(=O)N[C@@H](CCN)C(=O)N[C@H]1CCNC(=O)[C@H]([C@@H](C)O)NC(=O)[C@H](CCN)NC(=O)[C@H](CCN)NC(=O)[C@H](CC(C)C)NC(=O)[C@@H](Cc2ccccc2)NC(=O)[C@H](CCN)NC1=O)[C@H](O)CCC(F)(F)F [Int-118] ({Propargyl(OCH2CH2)4CO}-[Aoc(2)][Dab][X2][Dab][Dab][Dab][dF]L[Dab][Dab]T; lactam 5-C) | 1 (≈ 0.654 µM) | 1 (≈ 0.654 µM) | 0.95 (≈ 0.621 µM) | – | – | 1 (≈ 0.654 µM) | 0.95 (≈ 0.621 µM) | 2 (≈ 1.31 µM) | 1 (≈ 0.654 µM) | 2 (≈ 1.31 µM) | 3.81 (≈ 2.49 µM) | 2 (≈ 1.31 µM) | 2 (≈ 1.31 µM) | – | >128 | 59.0 | 40 | 128 (≈ 83.7 µM) | –
C#CCOCCOCCOCCOCCC(=O)N[C@@H](CCCCCC)C(=O)N[C@@H](CCN)C(=O)N[C@H](C(=O)NN(CCN)C(=O)N[C@H]1CCNC(=O)[C@H]([C@@H](C)O)NC(=O)[C@H](CCN)NC(=O)[C@H](CCN)NC(=O)[C@H](CC(C)C)NC(=O)[C@@H](Cc2ccccc2)NC(=O)[C@H](CCN)NC1=O)[C@@H](C)O [Int-129] ({Propargyl(OCH2CH2)4CO}-[Aoc(2)][Dab]T[azaDab][Dab][Dab][dF]L[Dab][Dab]T; lactam 5-C) | 2 (≈ 1.38 µM) | 1 (≈ 0.691 µM) | – | – | – | 2 (≈ 1.38 µM) | – | 4 (≈ 2.76 µM) | 2 (≈ 1.38 µM) | 8 (≈ 5.53 µM) | – | 2 (≈ 1.38 µM) | 2 (≈ 1.38 µM) | – | >128 | 23.0 | – | 128 (≈ 88.4 µM) | protection (survival over 5 days), FIG. 119 (A. baumannii AB5075): 60%
